Results taken from US8604229B2, “Lipoxin analogs and methods for the treatment of periodontal disease” (University of Southern California, priority 2000, dated 2013).

Tests used:
[1] = system: PGE2 production; experiment: PGE2 levels in air pouch exudates (EIA) after P. gingivalis; type: in vivo, BALB/c mice
Method: (§1) Six to eight week old male BALB/c mice were obtained from Taconic Farms (Germantown, N.Y.). Air pouches were raised on the dorsum by s.c. injection of 3 ml of sterile air on day 0 and day 3, and all experiments were carried out on day 6 (Sin, Y. M., et al. (1986) Ann. Rheum. Dis. 45, 873). Individual air pouches (one per mouse) were injected with either vehicle alone (0.1% ethanol), with 10 μg 15-R/S-methyl-LXA4-me or with 10 μg 15-epi-16-phenoxy-LXA4-me, followed by 500 μl of sterile PBS or ˜10^5 cells of P. gingivalis strain A7436 (OD600 0.9-1.0) originally obtained from the CF of a patient diagnosed with periodontitis. Mice were sacrificed 4 hr post-injection and individual air pouches were lavaged three times with sterile PBS (3 ml for each lavage) (Sin, Y. M. et al. (1986) Ann. Rheum. Dis. 45, 873; Hachicha, M., et al. (1999) J. Exp. Med. 189, 1923). […] Air pouch exudates were assessed for PGE2 using an enzyme immunoassay (EIA) kit (Cayman Chemical Co., Ann Arbor, Mich. [cross-reactivities in the PGE2 EIA kit were <0.04% for 6-keto PGF1α and <0.01% for LTB4, thromboxane B2 and arachidonic acid]). […]
Since PGE2 is associated with loss of attachment and bone loss in periodontal disease (Offenbacher, S., et al. (1992) J. Periodontal Res. 27, 207), we determined PGE2 levels in the air pouch exudates. […] Also, the expression of COX-2 was evaluated in exudate leukocytes. […]

[2] = system: COX-2 mRNA; experiment: COX-2 expression in air pouch exudate leukocytes (northern blot); type: in vivo, BALB/c mice; details: within the air pouch, P. gingivalis-injected mice
Method: as §1
Since PGE2 is associated with loss of attachment and bone loss in periodontal disease (Offenbacher, S., et al. (1992) J. Periodontal Res. 27, 207), we determined PGE2 levels in the air pouch exudates. […]

CCCCCC(C)(O)/C=C/C=C\C=C\C=C\[C@@H](O)[C@@H](O)CCCC(=O)O (stereo partly drawn) [15-R/S-methyl LXA4]
decrease of PGE2 levels in the exudates ([1]; 10 μg/pouch, P. gingivalis-injected murine air pouch, 4 hr): ≤ 75%
P. gingivalis-induced PGE2 production in murine air pouch (in words) ([1]; murine air pouch exudates): inhibits
overall expression of COX-2 in exudates [2]: decreased
